Laboratory results: article PMC6522510 (Nature Communications, 2019)
Counter-ions that a name gives are not always drawn. Like-named read-outs stand apart in the source and are kept apart here.

Tests used:
Design in all cases: species or system AML cell lines (8); Primary HTS, single concentration about 10 uM, Cell Titer Glo viability; log10 luminescence, per cent inhibition relative to cycloheximide control
Details in all cases: 72 h, relative to cycloheximide control, log10 luminescence, inhibitor
CHRF288-11 = test system: CHRF288-11
ML-2 = test system: ML-2
M07e = test system: M07e
CMS = test system: CMS
MOLM-13 = test system: MOLM-13
CMK = test system: CMK
U937 = test system: U937
MV4-11 = test system: MV4-11

Q: Which results are given for `C/C=C(/C(=C/C)c1ccc(O)cc1)c1ccc(O)cc1` [SJ000285735-4, DIENESTROL]?
A: CHRF288-11 %inh (CHRF288-11; CHRF288-11 %inh, 10 µM): -2.974%; ML-2 %inh (ML-2; ML-2 %inh, 10 µM): 0.7684%; M07e %inh (M07e; M07e %inh, 10 µM): -0.9445%; CMS %inh (CMS; CMS %inh, 10 µM): -3.971%; MOLM-13 %inh (MOLM-13; MOLM-13 %inh, 10 µM): 3.801%; CMK %inh (CMK; CMK %inh, 10 µM): 4.084%; U937 %inh (U937; U937 %inh, 10 µM): 2.437%; MV4-11 %inh (MV4-11; MV4-11 %inh, 10 µM): -1.794%

Q: Which CHRF288-11 %inh (CHRF288-11; CHRF288-11 %inh, 10 µM) does the source give for `C/C=C(/C(=C/C)c1ccc(O)cc1)c1ccc(O)cc1` [SJ000285735-5, DIENESTROL] here?
A: -2.147%

Q: What about the ML-2 %inh (ML-2; ML-2 %inh, 10 µM) of the same compound?
A: 1.532%

Q: What about the M07e %inh (M07e; M07e %inh, 10 µM) of the same compound?
A: 2.558%

Q: And the CMS %inh (CMS; CMS %inh, 10 µM)?
A: -2.72%

Q: And the MOLM-13 %inh (MOLM-13; MOLM-13 %inh, 10 µM)?
A: 17.84%

Q: What about the CMK %inh (CMK; CMK %inh, 10 µM) of the same compound?
A: 33.82%

Q: What about the U937 %inh (U937; U937 %inh, 10 µM) of the same compound?
A: 2.402%

Q: What about the MV4-11 %inh (MV4-11; MV4-11 %inh, 10 µM) of the same compound?
A: 1.913%

Q: Which CHRF288-11 %inh (CHRF288-11) does the source give for `CCN(CC)C(=O)N1CCN(C)CC1` [SJ000285736-4, DIETHYLCARBAMAZINE CITRATE] here?
A: -2.146%

Q: What about the ML-2 %inh (ML-2) of the same compound?
A: -1.11%

Q: And the M07e %inh (M07e)?
A: -3.005%

Q: What about the CMS %inh (CMS) of the same compound?
A: -4.008%

Q: And the MOLM-13 %inh (MOLM-13)?
A: 1.95%

Q: What about the CMK %inh (CMK) of the same compound?
A: 2.446%

Q: And the U937 %inh (U937)?
A: 2.79%

Q: And the MV4-11 %inh (MV4-11)?
A: 2.119%

Q: How did the CHRF288-11 %inh (CHRF288-11) turn out when `O=C(O)c1cc(-c2ccc(F)cc2F)ccc1O` [SJ000285738-4, DIFLUNISAL] was run?
A: -4.662%

Q: What about the ML-2 %inh (ML-2) of the same compound?
A: -0.2454%

Q: What about the M07e %inh (M07e) of the same compound?
A: 2.006%

Q: And the CMS %inh (CMS)?
A: 0.6702%

Q: And the MOLM-13 %inh (MOLM-13)?
A: 1.208%

Q: And the CMK %inh (CMK)?
A: -0.9892%

Q: And the U937 %inh (U937)?
A: 4.296%

Q: And the MV4-11 %inh (MV4-11)?
A: 3.937%

Q: `C[C@H]1O[C@@H](O[C@H]2[C@@H](O)C[C@H](O[C@H]3[C@@H](O)C[C@H](O[C@H]4CC[C@@]5(C)[C@H](CC[C@@H]6[C@@H]5C[C@@H](O)[C@]5(C)[C@@H](C7=CC(=O)OC7)CC[C@]65O)C4)O[C@@H]3C)O[C@@H]2C)C[C@H](O)[C@@H]1O` [SJ000285739-5, DIGOXIN] was tested. Which CHRF288-11 %inh (CHRF288-11; CHRF288-11 %inh, 10 µM) did it give?
A: 126.2%

Q: And the ML-2 %inh (ML-2; ML-2 %inh, 10 µM)?
A: 70.4%

Q: What about the M07e %inh (M07e; M07e %inh, 10 µM) of the same compound?
A: 115.6%

Q: And the CMS %inh (CMS; CMS %inh, 10 µM)?
A: 110.4%

Q: And the MOLM-13 %inh (MOLM-13; MOLM-13 %inh, 10 µM)?
A: 106.4%

Q: And the CMK %inh (CMK; CMK %inh, 10 µM)?
A: 94.03%

Q: What about the U937 %inh (U937; U937 %inh, 10 µM) of the same compound?
A: 89.45%

Q: What about the MV4-11 %inh (MV4-11; MV4-11 %inh, 10 µM) of the same compound?
A: 85.53%

Q: With `C[C@H]1O[C@@H](O[C@H]2[C@@H](O)C[C@H](O[C@H]3[C@@H](O)C[C@H](O[C@H]4CC[C@@]5(C)[C@H](CC[C@@H]6[C@@H]5C[C@@H](O)[C@]5(C)[C@@H](C7=CC(=O)OC7)CC[C@]65O)C4)O[C@@H]3C)O[C@@H]2C)C[C@H](O)[C@@H]1O` [SJ000285739-6, DIGOXIN] as the compound, how does the CHRF288-11 %inh (CHRF288-11; CHRF288-11 %inh, 10 µM) read?
A: 118.6%

Q: What about the ML-2 %inh (ML-2; ML-2 %inh, 10 µM) of the same compound?
A: 63.97%

Q: What about the M07e %inh (M07e; M07e %inh, 10 µM) of the same compound?
A: 102.6%

Q: What about the CMS %inh (CMS; CMS %inh, 10 µM) of the same compound?
A: 96.75%

Q: And the MOLM-13 %inh (MOLM-13; MOLM-13 %inh, 10 µM)?
A: 91.77%

Q: And the CMK %inh (CMK; CMK %inh, 10 µM)?
A: 86.52%

Q: What about the U937 %inh (U937; U937 %inh, 10 µM) of the same compound?
A: 81.18%

Q: And the MV4-11 %inh (MV4-11; MV4-11 %inh, 10 µM)?
A: 80.5%

Q: For `CN(C)CCOC(C)(c1ccccc1)c1ccccn1` (centres unmarked) [SJ000285751-7, DOXYLAMINE SUCCINATE], which CHRF288-11 %inh (CHRF288-11) is on record?
A: 11.69%

Q: And the ML-2 %inh (ML-2)?
A: -0.5397%

Q: And the M07e %inh (M07e)?
A: 1.23%

Q: What about the CMS %inh (CMS) of the same compound?
A: -0.1312%

Q: And the MOLM-13 %inh (MOLM-13)?
A: 4.161%

Q: What about the CMK %inh (CMK) of the same compound?
A: -1.167%

Q: And the U937 %inh (U937)?
A: -1.083%

Q: And the MV4-11 %inh (MV4-11)?
A: -5.123%

Q: Which results are given for `C[C@]12CC[C@@H]3c4ccc(O)cc4CC[C@H]3[C@@H]1CCC2=O` [SJ000285760-7, ESTRONE]?
A: CHRF288-11 %inh (CHRF288-11; CHRF288-11 %inh, 10 µM): -1.204%; ML-2 %inh (ML-2; ML-2 %inh, 10 µM): 0.07519%; M07e %inh (M07e; M07e %inh, 10 µM): 1.639%; CMS %inh (CMS; CMS %inh, 10 µM): 0.8051%; MOLM-13 %inh (MOLM-13; MOLM-13 %inh, 10 µM): -0.4054%; CMK %inh (CMK; CMK %inh, 10 µM): 0.6093%; U937 %inh (U937; U937 %inh, 10 µM): 0.9734%; MV4-11 %inh (MV4-11; MV4-11 %inh, 10 µM): 2.184%

Q: What does the source list for `C[C@]12CC[C@@H]3c4ccc(O)cc4CC[C@H]3[C@@H]1CCC2=O` [SJ000285760-8, ESTRONE]?
A: CHRF288-11 %inh (CHRF288-11; CHRF288-11 %inh, 10 µM): 3.613%; ML-2 %inh (ML-2; ML-2 %inh, 10 µM): 0.7014%; M07e %inh (M07e; M07e %inh, 10 µM): 2.553%; CMS %inh (CMS; CMS %inh, 10 µM): -1.181%; MOLM-13 %inh (MOLM-13; MOLM-13 %inh, 10 µM): -0.7843%; CMK %inh (CMK; CMK %inh, 10 µM): -1.298%; U937 %inh (U937; U937 %inh, 10 µM): -0.6937%; MV4-11 %inh (MV4-11; MV4-11 %inh, 10 µM): 1.151%

Q: `C=C(CC)C(=O)c1ccc(OCC(=O)O)c(Cl)c1Cl` [SJ000285761-4, ETHACRYNIC ACID] was tested. Which CHRF288-11 %inh (CHRF288-11) did it give?
A: 13.52%

Q: What about the ML-2 %inh (ML-2) of the same compound?
A: 6.312%

Q: What about the M07e %inh (M07e) of the same compound?
A: 4.659%

Q: And the CMS %inh (CMS)?
A: -0.1029%

Q: And the MOLM-13 %inh (MOLM-13)?
A: 7.494%

Q: What about the CMK %inh (CMK) of the same compound?
A: 27.12%

Q: What about the U937 %inh (U937) of the same compound?
A: 4.395%

Q: And the MV4-11 %inh (MV4-11)?
A: 1.71%
